Here are results for five compounds from US12286455B2, “Anthelmintic depsipeptide compounds” (BOEHRINGER INGELHEIM ANIMAL HEALTH USA INC., priority 2015, dated 2025).

The subject of assay [1] is Dirofilaria immitis R isolate (reduced sensitivity to macrocyclic lactones). Briefly: Method D study 1: efficacy against induced D. immitis infection in beagle dogs (R isolate). Format: in vivo. The following applies: beagles.
Assay [2] has as its system Dirofilaria immitis S isolate (sensitive to macrocyclic lactones). The assay is described as follows: Method D study 2: efficacy against induced D. immitis infection in beagle dogs (S isolate). Particulars: beagles. Format: in vivo.
Setting [3] is: oral solution 2.5 mg/kg + ivermectin 6 μg/kg, days 0, 32, 60, 90 & 119, necropsy Day 150.

Take `CC(C)C[C@H]1C(=O)O[C@H](C)C(=O)N(C)[C@@H](CC(C)(C)F)C(=O)O[C@H](Cc2ccc(N3CCOCC3)cc2)C(=O)N(C)[C@@H](CC(C)C)C(=O)O[C@H](C)C(=O)N(C)[C@@H](CC(C)(C)F)C(=O)O[C@H](Cc2ccc(N3CCOCC3)cc2)C(=O)N1C` [Compound 6-18]: the Efficacy in assay [1] (setting [3]) was 100%.
Consider `CC(C)C[C@H]1C(=O)O[C@H](Cc2ccc(C3CCOCC3)cc2)C(=O)N(C)[C@@H](CC(C)C)C(=O)O[C@H](C)C(=O)N(C)[C@@H](CC(C)C)C(=O)O[C@H](Cc2ccc(C3CCOCC3)cc2)C(=O)N(C)[C@@H](CC(C)C)C(=O)O[C@H](C)C(=O)N1C` [Compound 7-27], for which the Efficacy in assay [1] (setting [3]) was 100%.
Turning to `CC(C)C[C@H]1C(=O)O[C@H](C)C(=O)N(C)[C@@H](CC(C)(C)F)C(=O)O[C@H](Cc2ccc(C3CCOCC3)cc2)C(=O)N(C)[C@@H](CC(C)C)C(=O)O[C@H](C)C(=O)N(C)[C@@H](CC(C)(C)F)C(=O)O[C@H](Cc2ccc(C3CCOCC3)cc2)C(=O)N1C` [Compound 7-18], the Efficacy turned out to be 100% in assay [1] (oral solution 1.0 mg/kg + ivermectin 6 μg/kg, days 0, 32, 60, 90 & 119, necropsy Day 150); 100% in assay [2] (oral solution 0.5 mg/kg, days 0, 30, 60, 90 & 120, necropsy Day 155); 100% in assay [2] (oral solution 2.5 mg/kg, days 0, 30, 60 & 154, necropsy Day 155).
As for `CC(C)C[C@H]1C(=O)O[C@H](Cc2ccc(N3CCOCC3)cc2)C(=O)N(C)[C@@H](CC(C)C)C(=O)O[C@H](C)C(=O)N(C)[C@@H](CC(C)C)C(=O)O[C@H](Cc2ccc(N3CCOCC3)cc2)C(=O)N(C)[C@@H](CC(C)C)C(=O)O[C@H](C)C(=O)N1C` [emodepside, reference compound], the Efficacy was 98.8% in assay [1] (setting [3]) and 98.8% in assay [1] (oral solution 2.5 mg/kg + ivermectin 6 μg/kg, days 0, 32, 60, 90 & 119, necropsy Day 150, listed as Emodepside).
Take `CC(C)C[C@H]1C(=O)O[C@H](C)C(=O)N(C)[C@@H](CC(C)(C)F)C(=O)O[C@H](Cc2ccc(C(F)(F)F)cc2)C(=O)N(C)[C@@H](CC(C)C)C(=O)O[C@H](C)C(=O)N(C)[C@@H](CC(C)(C)F)C(=O)O[C@H](Cc2ccc(C(F)(F)F)cc2)C(=O)N1C` [Compound 4-18]: the Efficacy in assay [1] (setting [3]) is reported as 100%.
